# Experiment: Human HepG2 cell viability assay in 384 well format
# Type: toxicity, cell-based
# Set-up: dose 125 nL, time 70.5 hour; concentration not given beside the values
# Details: HepG2 cells, read-out: Inhibition
row,SMILES,cytotoxicity at 70.5 h
1,CCCNC(=O)C(C)NC(=O)Nc1ccccc1SC(F)F (centres undefined),-13%
2,CCOC1CCN(C(=O)NCc2ccc(CN3CCOCC3)cc2)CC1,-9.89%
3,CN(CCc1ccccn1)C(=O)Nc1cccnc1N1CCCC1,11.3%
4,Cc1cc(N(C)C)nc(N2CCCC2c2cccnc2)n1 (centres undefined),-1.47%
5,Cc1nn(C)c(C)c1C(=O)N1CCN(C(=O)CC2CCCCC2)CC1,11.5%
6,Cc1nsc(N2CCN(Cc3cccc(F)c3)CC2)n1,0.252%
7,Cc1cccc(CN(Cc2ccccn2)Cc2ncc(C(C)(C)C)o2)c1,-11.5%
8,O=S(=O)(N1CCC(n2cccc2)CC1)N1CCCC1c1ccco1 (centres undefined),-10.3%
9,O=C(NCC(O)c1ccc(Cl)s1)c1ccoc1 (centres undefined),-8.52%
10,COCCN(Cc1ccc(C)o1)C(=O)Nc1nnc2ccccn12,-16.7%
11,O=c1[nH]c(C2CCOC2)nc2ccc(Cl)cc12 (centres undefined),7.32%
12,CN1CCc2ccc(NCc3cccs3)cc2C1=O,-15.5%
13,COCc1nnc(-c2cccc(C(=O)N(C(C)C)C3CCC3)c2)o1,-12.7%
14,Cc1cc(CNc2cc(-c3ccoc3C)nn2CCO)c(C)o1,-12.2%
15,COCCCN(Cc1ccncc1)C(=O)C1COc2ccccc2C1 (centres undefined),-14.9%
16,COc1cc(NCCNC(=O)c2ccc3[nH]ccc3c2)cc(OC)c1,-13.8%
17,COc1cc(NCCNC(=O)c2cscc2C)cc(OC)c1,-2.4%
18,COCc1nnc(-c2cccc(C(=O)OC(C)C)c2)o1,-8.2%
19,CSC1(CNC(=O)N(C)Cc2sccc2C)CCOCC1,29.3%
20,Cc1nc(CN2CCCC2Cn2cccn2)nc2ccccc12 (centres undefined),7.51%

row,SMILES,cytotoxicity at 70.5 h
1,O=C(c1cc(-c2ccccc2)nc2onc(C3CC3)c12)N1CC[C@H](O)C1,-11.3%
2,CCOc1ccc(CN(C)C(=O)c2nc(N3CCCC3)ncc2Cl)cc1,-8.28%
3,Cc1cc(CN(C)C(=O)CNS(=O)(=O)c2cccs2)no1,-6.5%
4,N#Cc1cccnc1NCc1cccnc1N1CCCCC1,4.49%
5,CCc1nc(NC(=O)Cc2csc(-c3nnc[nH]3)n2)sc1C,-11.9%
6,CC(C)c1nccn1CC1CCCN1Cc1nc2ccccc2n1C (centres undefined),-10.4%
7,CCc1ccc(CCC(=O)N2CCC(=O)Nc3cccnc32)cc1,23.9%
8,CC(=O)NC1CCCN(c2nc3ccccc3cc2CO)C1 (centres undefined),2.9%
9,Oc1ccc(Br)c(CNc2cccc(-c3nnc[nH]3)c2)c1,1.61%
10,CNC(=O)COC(=O)c1cccc(-n2ccc(C(F)(F)F)n2)c1,0.44%
11,CC(C)c1nc(CN(C)S(=O)(=O)c2cccs2)cs1,1.87%
12,CCOC(=O)NC1CCCN(c2cncc(Br)c2)C1 (centres undefined),0.767%
13,CCCC(=O)NC1CCCN(c2nc3ccccc3cc2CO)C1 (centres undefined),13.7%
14,CCc1nnc2n1CCN(C(=O)CCc1ccc3c(c1)OCO3)C2,-18.7%
15,NC(=O)Nc1ccc(C(=O)NCCn2cccc2)cc1,-11.7%
16,Cc1ccc(C(=O)N(CC2CCCO2)c2ccncc2)o1 (centres undefined),-8.12%
17,CC1CCN(C(=O)c2ccc(N(C)Cc3cnn(C)c3)nc2)CC1,-7.81%
18,Cc1cc(C(=O)NC2=NCCS2)c(C)n1-c1ccccn1,-6.96%
19,CCc1n[nH]c(C2CN(C(=O)COCC(F)(F)F)CCO2)n1 (centres undefined),-10.6%
20,CC1CCN(C(=O)NCCc2cc(F)ccc2F)C1 (centres undefined),-11.9%

row,SMILES,cytotoxicity at 70.5 h
1,COc1ccc(C(=O)CCC(=O)NCc2ncc(C)s2)cc1F,-9.89%
2,Cc1cc(C)n(CC(=O)N(CC2CN(C)CCO2)c2nccs2)n1 (centres undefined),-4.83%
3,Cc1cnn(CCC(=O)N(CC2CN(C)CCO2)c2nccs2)c1 (centres undefined),-12.8%
4,CCc1nc(CN(C)CC(=O)NC(C)C)cs1,-13.3%
5,CCc1nc(CN(C)CC(=O)OC(C)(C)C)cs1,-4.57%
6,CCOC(=O)C1CCCN(Cc2cc(C#N)n(C)c2C)C1 (centres undefined),-11.7%
7,Cc1cnn(CC(=O)N(CC2CN(C)CCO2)c2nccs2)c1 (centres undefined),-14.4%
8,O=C(c1cccnc1)N(Cc1ccncc1)C1CC1,-4.09%
9,O=S(=O)(CCN1CCCC1Cn1cccn1)c1ccccc1 (centres undefined),-13.8%
10,CCc1nc(CCNC(=O)NC2CC(=O)N(C(C)(C)C)C2)cs1 (centres undefined),-5.26%
11,CS(=O)(=O)NC1CCN(C(=O)c2ccc(F)cc2)CC1,-3.98%
12,N#CCCN(CCC#N)C(=O)c1ccc(OCC2CC2)cc1,-7.55%
13,Cc1occc1C(=O)NCC(=O)NCCOc1ccc2c(c1)CCC2,-10.4%
14,NC(=O)CC1CCN(C(=O)c2csc(-c3ccccc3F)n2)CC1,-18.8%
15,CCN1CCN(CC(O)c2ccc(Br)cc2)CC1 (centres undefined),-1.54%
16,c1ccc(C(c2ccccc2)N2CCN(CCn3cncn3)CC2)cc1,-10.4%
17,NC(=O)CC1CCN(CC(O)c2ccc(Br)cc2)CC1 (centres undefined),-6.64%
18,Cc1cnn(C2CN(CC(=O)NCC3(c4ccccc4)CC3)C2)c1,-6.95%
19,Cc1cnn(C2CN(CC(=O)NCC3(c4ccccc4)CCC3)C2)c1,-2.82%

# From ChEMBL document CHEMBL3507680, “University of Dundee, Gates Library screen for HepG2 cell viability”
